Assay results from patent US11400063B2, “Early administration of low-dose colchicine after myocardial infarction” (INSTITUT DE CARDIOLOGIE DE MONTREAL, priority 2019, dated 2022).

System: patients recruited within 30 days after a myocardial infarction
Assay: COLCOT time-to-treatment initiation (TTI) analysis
Type: in vivo, human
Conditions: for All Coronary Revascularizations, HR (95% CI) / All-cause death, HR (95% CI) / MI, HR (95% CI) / Primary composite endpoint, HR (95% CI) / Resuscitated cardiac arrest, HR (95% CI) / Secondary Composite Endpoint, HR (95% CI) / Stroke, HR (95% CI) / Urgent hospitalization for angina requiring coronary revascularization, HR (95% CI) / Time to first positively adjudicated primary endpoint, HR (95% CI): colchicine vs. placebo
Experimental: (§1) The results of the COLCOT trial have been further analyzed to determine if time to treatment initiation (TTI) had any effect on the outcome of the treatment. Three different cutoffs for TTI were used in order to determine the association between early initiation of therapy and clinical outcomes. These cutoffs were determined based on the usual journey of patients with MI. The first 30-day post-MI timeline was divided into three independent periods of time, and analyzed as such: from day 0 to 3, referring to in-hospital management; from day 4 to 7, referring to early post-discharge period and from day 8 to 30, referring to late post-discharge period.
COLCOT was an international multicenter, randomized, double-blinded trial that randomly assigned patients to receive either low-dose colchicine (0.5 mg once daily) or placebo. The study protocol and main results have been published (see, Tardif et al., N Engl J Med 2019). […] Main exclusion criteria were severe heart failure, reduced left ventricular ejection fraction (<35%), recent stroke (<3 months), type 2 MI, recent (<3 years) or planned coronary artery bypass graft (CABG), history of cancer (<3 years), and inflammatory bowel disease or chronic diarrhea. All patients enrolled in the trial benefited from percutaneous coronary intervention whenever indicated and guidelines-directed management of CV disease prior to randomization (see. Tardif et al., N Engl J Med 2019).
The primary efficacy endpoint was a composite of CV death, resuscitated cardiac arrest, MI, stroke, or urgent hospitalization for angina requiring coronary revascularization. The secondary endpoints consisted of the components of the primary efficacy endpoint, all-cause death, and a composite of CV death, resuscitated cardiac arrest, MI, or stroke. Exploratory endpoints included all coronary revascularizations, including both elective and urgent coronary revascularizations.
as §1, with “Three” for “The results of the COLCOT trial have been further analyzed to determine if time to treatment initiation (TTI) had any effect on the outcome of the treatment. Three”
Both the TTI of less than 4 days and the TTI of less than 5 days was were calculated using a basic model (Table 4 and Table 6) as well as an adjusted model (Table 5 and Table 7) which is described below in the statistical analysis section. In all cases, the interaction p-value was not significant (p>0.05), meaning that the conclusion over Placebo vs. Colchicine group can be obtained directly from the respective p-values for HR. In other words, relationships within the placebo and colchicine groups with TTI are both linear/parallel and the interpretation is straightforward.
For the present TTI analysis, the data were centrally analyzed by an independent academic biostatistics center at the Montreal Health Innovations Coordinating Center. The analysis was conducted amongst patients who received at least one dose of the study medication (referred to as the safety population in the main protocol, FIG. 1). TTI was defined as the length of time in days between the index MI and the initiation of the study medication, and three specific cutoffs were analyzed ([…], days 4 to […]). Early initiation of therapy was defined as TTI≤3 days. Baseline characteristics were summarized using counts and percentages for categorical variables and mean±standard deviation (SD) for continuous variables. For each baseline characteristic, comparisons were made using ANOVA for continuous variables and Chi-Square test for categorical variables according to TTI strata. […]

[1] = TTI 0-3 days, listed as colchicine
[2] = delay between randomization and index MI [0-4] days
[3] = delay between randomization and index MI [0-5] days
[4] = delay between randomization and index MI [5-30] days
[5] = delay between randomization and index MI [6-30] days

## COc1cc2c(c(OC)c1OC)-c1ccc(OC)c(=O)cc1[C@@H](NC(C)=O)CC2 [Colchicine, colchicine]
TTI 0-3 days, N = 1193
  All Coronary Revascularizations, % of patients: 5.5%
  All Coronary Revascularizations, no. of patients: 33 no.
  All-cause death, % of patients: 1.0%
  All-cause death, no. of patients: 6 no.
  MI, % of patients: 2.8%
  MI, no. of patients: 17 no.
  Primary composite endpoint, % of patients: 4.3%
  Primary composite endpoint, no. of patients: 26 no.
  Resuscitated cardiac arrest, % of patients: 0.2%
  Resuscitated cardiac arrest, no. of patients: 1 no.
  Secondary Composite Endpoint, % of patients: 3.3%
  Stroke, % of patients: 0.2%
  Stroke, no. of patients: 1 no.
  Urgent hospitalization for angina requiring coronary revascularization, % of patients: 1%
  Urgent hospitalization for angina requiring coronary revascularization, no. of patients: 6 no.
TTI 0-3 days, N = 1193, CV death, resuscitated cardiac arrest, MI or stroke
  Secondary Composite Endpoint, no. of patients: 20 no.
TTI 0-3 days
  All Coronary Revascularizations, HR (95% CI): 0.63 (0.40-0.97); p = 0.037
  All-cause death, HR (95% CI): 1.03 (0.33-3.19); p = 0.962
  MI, HR (95% CI): 0.58 (0.32-1.05); p = 0.071
  Primary composite endpoint, HR (95% CI): 0.52 (0.32-0.84); p = 0.007
  Resuscitated cardiac arrest, HR (95% CI): 0.33 (0.03-3.20); p = 0.340
  Secondary Composite Endpoint, HR (95% CI): 0.55 (0.32-0.95); p = 0.031
  Stroke, HR (95% CI): 0.21 (0.02-1.81); p = 0.156
  Urgent hospitalization for angina requiring coronary revascularization, HR (95% CI): 0.35 (0.14-0.88); p = 0.026
[1]
  All Coronary Revascularizations, HR (95% CI): 0.63
  All-cause death, HR (95% CI): 1.03
  MI, HR (95% CI): 0.58
  Primary composite endpoint, HR (95% CI): 0.52
  Resuscitated cardiac arrest, HR (95% CI): 0.33
  Secondary Composite Endpoint, HR (95% CI): 0.55
  Stroke, HR (95% CI): 0.21
  Urgent hospitalization for angina requiring coronary revascularization, HR (95% CI): 0.35
TTI 4-7 days, N = 720
  All Coronary Revascularizations, % of patients: 6.9%
  All Coronary Revascularizations, no. of patients: 25 no.
  All-cause death, % of patients: 2.2%
  All-cause death, no. of patients: 8 no.
  MI, % of patients: 4.4%
  MI, no. of patients: 16 no.
  Primary composite endpoint, % of patients: 6.0%
  Primary composite endpoint, no. of patients: 22 no.
  Resuscitated cardiac arrest, % of patients: 0.5%
  Resuscitated cardiac arrest, no. of patients: 2 no.
  Secondary Composite Endpoint, % of patients: 4.9%
  Secondary Composite Endpoint, no. of patients: 18 no.
  Stroke, % of patients: 0.3%
  Stroke, no. of patients: 1 no.
  Urgent hospitalization for angina requiring coronary revascularization, % of patients: 1.1%
  Urgent hospitalization for angina requiring coronary revascularization, no. of patients: 4 no.
TTI 4-7 days
  All Coronary Revascularizations, HR (95% CI): 1.41 (0.76-2.61); p = 0.275
  All-cause death, HR (95% CI): 1.03 (0.37-2.84); p = 0.957
  MI, HR (95% CI): 1.67 (0.74-3.78); p = 0.218
  Primary composite endpoint, HR (95% CI): 0.96 (0.53-1.75); p = 0.896
  Resuscitated cardiac arrest, HR (95% CI): 1.90 (0.17-20.95); p = 0.600
  Secondary Composite Endpoint, HR (95% CI): 1.04 (0.53-2.03); p = 0.919
  Stroke, HR (95% CI): 0.28 (0.03-2.71); p = 0.272
  Urgent hospitalization for angina requiring coronary revascularization, HR (95% CI): 0.63 (0.18-2.24); p = 0.476
TTI ≥ 8 days, N = 2748
  All Coronary Revascularizations, % of patients: 5.3%
  All Coronary Revascularizations, no. of patients: 72 no.
  All-cause death, % of patients: 1.9%
  All-cause death, no. of patients: 26 no.
  MI, % of patients: 3.8%
  MI, no. of patients: 52 no.
  Primary composite endpoint, % of patients: 5.7%
  Primary composite endpoint, no. of patients: 77 no.
  Resuscitated cardiac arrest, % of patients: 0.1%
  Resuscitated cardiac arrest, no. of patients: 2 no.
  Secondary Composite Endpoint, % of patients: 4.9%
  Secondary Composite Endpoint, no. of patients: 67 no.
  Stroke, % of patients: 0.1%
  Stroke, no. of patients: 2 no.
  Urgent hospitalization for angina requiring coronary revascularization, % of patients: 1.1%
  Urgent hospitalization for angina requiring coronary revascularization, no. of patients: 15 no.
TTI ≥ 8 days
  All Coronary Revascularizations, HR (95% CI): 0.81 (0.59-1.10); p = 0.172
  All-cause death, HR (95% CI): 0.90 (0.53-1.51); p = 0.684
  MI, HR (95% CI): 0.93 (0.64-1.35); p = 0.710
  Primary composite endpoint, HR (95% CI): 0.82 (0.61-1.11); p = 0.200
  Resuscitated cardiac arrest, HR (95% CI): 1.02 (0.14-7.22); p = 0.986
  Secondary Composite Endpoint, HR (95% CI): 0.92 (0.66-1.28); p = 0.629
  Stroke, HR (95% CI): 0.19 (0.04-0.84); p = 0.029
  Urgent hospitalization for angina requiring coronary revascularization, HR (95% CI): 0.61 (0.32-1.16); p = 0.131
[0-4] days, adjusted Cox model
  Time to first positively adjudicated primary endpoint, HR (95% CI): 0.58 (0.36; 0.89)
[0-4] days, adjusted Cox model, listed as colchicine
  Time to first positively adjudicated primary endpoint, HR (95% CI): 0.58
[0-4] days, basic Cox model
  Time to first positively adjudicated primary endpoint, HR (95% CI): 0.57 (0.37; 0.87)
[0-5] days, adjusted Cox model, listed as colchicine
  Time to first positively adjudicated primary endpoint, HR (95% CI): 0.68 (0.45-1.02)
[0-5] days, basic Cox model
  Time to first positively adjudicated primary endpoint, HR (95% CI): 0.67 (0.45; 1.01)
[5-20] days, adjusted Cox model
  Time to first positively adjudicated primary endpoint, HR (95% CI): 0.84 (0.64; 1.11)
[5-20] days, basic Cox model
  Time to first positively adjudicated primary endpoint, HR (95% CI): 0.83 (0.63; 1.09)
[6-30] days, adjusted Cox model
  Time to first positively adjudicated primary endpoint, HR (95% CI): 0.35 (0.60, 1.05)
[6-30] days, basic Cox model
  Time to first positively adjudicated primary endpoint, HR (95% CI): 0.78 (0.59; 1.03)
Colchicine initiated between days 0 and 3, vs placebo
  reduction in the risk of the composite primary endpoint: 48%
[2]
  Positively adjudicated primary endpoint No, % of patients: (95.6%)
  Positively adjudicated primary endpoint No, no. of patients: 734 no.
  Positively adjudicated primary endpoint Yes, % of patients: (4.4%)
  Positively adjudicated primary endpoint Yes, no. of patients: 34 no.
[3]
  Positively adjudicated primary endpoint No, % of patients: (95.3%)
  Positively adjudicated primary endpoint No, no. of patients: 819 no.
  Positively adjudicated primary endpoint Yes, % of patients: (4.7%)
  Positively adjudicated primary endpoint Yes, no. of patients: 40 no.
[4]
  Positively adjudicated primary endpoint No, % of patients: (94.1%)
  Positively adjudicated primary endpoint No, no. of patients: 1463 no.
  Positively adjudicated primary endpoint Yes, % of patients: (5.9%)
  Positively adjudicated primary endpoint Yes, no. of patients: 91 no.
[5]
  Positively adjudicated primary endpoint No, % of patients: (94.2%)
  Positively adjudicated primary endpoint No, no. of patients: 1378 no.
  Positively adjudicated primary endpoint Yes, % of patients: (5.8%)
  Positively adjudicated primary endpoint Yes, no. of patients: 85 no.
Early initiation of low-dose colchicine
  reduction of secondary efficacy endpoint (CV death, resuscitated cardiac arrest, MI or stroke): 45%
